From patent US20070128217A1 (priority 2003, published 2007)

Columns and labels:
[1] = test system: antibodies in sera from SARS patients (sera 1a, 1b, 2, 6, 37, 62, London, SARS-yellow, SARS-green); format: binding, human; parameters: Binding of serum 6 to linear peptides of protein X1 of SARS-CoV Urbani / Binding of serum 37 to linear peptides of protein X1 of SARS-CoV Urbani / Binding of serum 6 to looped/cyclic peptide (PEPSCAN-ELISA) / Binding of serum 37 to looped/cyclic peptide (PEPSCAN-ELISA) / Binding of serum 37 to looped/cyclic peptides of protein X1 of SARS-CoV Urbani / Binding of serum 6 to linear peptides of protein X2 / Binding of serum 37 to linear peptides of protein X2 / Binding of serum 37 to looped/cyclic peptides of protein X2 of SARS-CoV Urbani / Binding of serum 6 to linear peptides of protein M of SARS-CoV Urbani / Binding of serum 37 to linear peptides of protein M of SARS-CoV Urbani / Binding of serum 6 to looped/cyclic peptides of protein M of SARS-CoV Urbani / Binding of serum 37 to looped/cyclic peptides of protein M of SARS-CoV Urbani / Binding of serum 6 to linear peptides of protein X3 of SARS-CoV Urbani / Binding of serum 37 to linear peptides of protein X3 of SARS-CoV Urbani / Binding of serum 37 to looped/cyclic peptides of protein X3 of SARS-CoV Urbani / Binding of serum 6 to linear peptides of protein X4 of SARS-CoV Urbani / Binding of serum 37 to linear peptides of protein X4 of SARS-CoV Urbani / Binding of serum 37 to looped/cyclic peptides of protein X4 of SARS-CoV Urbani / Binding of serum 6 to linear peptides of protein X5 of SARS-CoV Urbani / Binding of serum 37 to linear peptides of protein X5 of SARS-CoV Urbani / Binding of serum 37 to looped/cyclic peptides of protein X5 of SARS-CoV Urbani / Binding of serum 6 to linear peptides of protein N of SARS-CoV Urbani / Binding of serum 37 to linear peptides of protein N of SARS-CoV Urbani / Binding of serum 6 to linear peptide (PEPSCAN-ELISA) / Binding of serum 1a to looped/cyclic peptides of protein N of SARS-CoV Urbani / Binding of serum 1b to looped/cyclic peptides of protein N of SARS-CoV Urbani / Binding of serum 2 to looped/cyclic peptides of protein N of SARS-CoV Urbani / Binding of serum 6 to looped/cyclic peptides of protein N of SARS-CoV Urbani / Binding of serum 37 to looped/cyclic peptides of protein N of SARS-CoV Urbani / Binding of serum 62 to looped/cyclic peptides of protein N of SARS-CoV Urbani / Binding of serum London to looped/cyclic peptides of protein N of SARS-CoV Urbani / Binding of serum SARS-green to looped/cyclic peptides of protein N of SARS-CoV Urbani: unit not given here
[2] = test system: rabbit serum obtained by immunizing a rabbit with the SARS-CoV strain Frankfurt 1; format: binding; parameters: Binding of a rabbit serum to linear peptides / Binding of a rabbit serum to looped peptides / Rabbit serum linear peptides / Rabbit serum looped peptides / Binding of a rabbit serum to linear peptides of protein N of SARS-CoV Urbani (Rabbit serum linear peptides) / Binding of a rabbit serum to looped/cyclic peptides of protein N of SARS-CoV Urbani (Rabbit serum looped peptides): unit not given here
[3] = test system: recombinant human anti-SARS-CoV antibody 03-018; format: binding; parameters: Binding of antibody 03-018 to linear peptides of the N protein of SARS-CoV Urbani / Binding of antibody 03-018 to looped/cyclic peptides of the N protein of SARS-CoV Urbani: unit not given here
[4] = test system: control sera (pooled serum of ten healthy LUMC hospital workers; commercial negative donor pooled serum from the Dutch bloodbank); format: binding, human; parameters: Binding of Control serum LUMC to linear peptides / Binding of Control serum Blood-bank to linear peptides / Binding of Control serum LUMC to looped peptides / Binding of Control Serum Blood-Bank to Looped peptides / Binding of Control serum LUMC to linear peptides of the protein M of SARS-CoV Urbani / Binding of Control serum Blood-bank to linear peptides of the protein M of SARS-CoV Urbani / Binding of Control serum LUMC to looped peptides of the protein M of SARS-CoV Urbani / Binding of Control Serum Blood-Bank to Looped peptides of the protein M of SARS-CoV Urbani: unit not given here

| Sequence | Binding of serum 1a to looped/cyclic peptides of protein N of SARS-CoV Urbani [1] | Binding of serum 1b to looped/cyclic peptides of protein N of SARS-CoV Urbani [1] | Binding of serum 2 to looped/cyclic peptides of protein N of SARS-CoV Urbani [1] | Binding of serum 6 to looped/cyclic peptides of protein N of SARS-CoV Urbani [1] | Binding of serum 37 to looped/cyclic peptides of protein N of SARS-CoV Urbani [1] | Binding of serum 62 to looped/cyclic peptides of protein N of SARS-CoV Urbani [1] | Binding of serum London to looped/cyclic peptides of protein N of SARS-CoV Urbani [1] | Binding of serum SARS-green to looped/cyclic peptides of protein N of SARS-CoV Urbani [1] | Binding of serum SARS-yellow to looped/cyclic peptides of protein N of SARS-CoV Urbani [1] | Binding of a rabbit serum to linear peptides of protein N of SARS-CoV Urbani (Rabbit serum linear peptides) [2] | Binding of a rabbit serum to looped/cyclic peptides of protein N of SARS-CoV Urbani (Rabbit serum looped peptides) [2] | Binding of antibody 03-018 to linear peptides of the N protein of SARS-CoV Urbani [3] | Binding of antibody 03-018 to looped/cyclic peptides of the N protein of SARS-CoV Urbani [3] | Binding of Control Serum Blood-Bank to Looped peptides [4] | Binding of Control serum Blood-bank to linear peptides [4] | Binding of Control serum LUMC to linear peptides [4] | Binding of Control serum LUMC to looped peptides [4] | Binding of serum 1a to linear peptides of protein N of SARS-CoV Urbani [1] | Binding of serum 1b to linear peptides of protein N of SARS-CoV Urbani [1] | Binding of serum 2 to linear peptides of protein N of SARS-CoV Urbani [1] | also measured |
| --- | --- | --- | --- | --- | --- | --- | --- | --- | --- | --- | --- | --- | --- | --- | --- | --- | --- | --- | --- | --- | --- |
| TALALLLLDRLNQLE | 0.4 | 0.3 | 0.5 | 0.3 | 0.8 | 0.7 | 0.5 | 0.7 | 0.5 | 0.2 | 0.5 | 0.1 | 0.2 | 0.8 | 0.7 | 0.7 | 0.8 |  |  |  | Binding of serum 1a to linear peptide (PEPSCAN-ELISA) [1]: 0.3; Binding of serum 1b to linear peptide (PEPSCAN-ELISA) [1]: 0.2; Binding of serum 2 to linear peptide (PEPSCAN-ELISA) [1]: 0.2; Binding of serum 6 to linear peptide (PEPSCAN-ELISA) [1]: 0.2; Binding of serum 37 to linear peptide (PEPSCAN-ELISA) [1]: 0.7; Binding of serum 62 to linear peptide (PEPSCAN-ELISA) [1]: 0.7; Binding of serum London to linear peptide (PEPSCAN-ELISA) [1]: 0.5; Binding of serum SARS-green to linear peptide (PEPSCAN-ELISA) [1]: 0.8; Binding of serum SARS-yellow to linear peptide (PEPSCAN-ELISA) [1]: 0.6 |
| TDNNQNGGRNGARPK | 0.2 | 0.1 | 0.2 | 0.2 | 0.4 | 0.2 | 0.3 | 0.1 | 0.3 | 0.2 | 0.4 | 0.2 | 0.2 | 0.5 | 0.9 | 0.8 | 0.5 | 0.3 | 0.2 | 0.4 | Binding of serum 6 to linear peptides of protein N of SARS-CoV Urbani [1]: 0.2; Binding of serum 37 to linear peptides of protein N of SARS-CoV Urbani [1]: 0.8; Binding of serum 62 to linear peptides of protein N of SARS-CoV Urbani [1]: 1.0; Binding of serum London to linear peptides of protein N of SARS-CoV Urbani [1]: 0.6; Binding of serum SARS-green to linear peptides of protein N of SARS-CoV Urbani [1]: 0.8; Binding of serum SARS-yellow to linear peptides of protein N of SARS-CoV Urbani [1]: 0.7 |
| TDYKHWPQIAQFAPS | 0.6 | 0.5 | 0.8 | 0.5 | 0.9 | 1.3 | 0.7 | 0.6 | 0.9 | 0.2 | 0.5 | 0.1 | 0.2 |  |  |  |  | 0.3 | 0.2 | 0.2 | Binding of serum 6 to linear peptides of protein N of SARS-CoV Urbani [1]: 0.2; Binding of serum 37 to linear peptides of protein N of SARS-CoV Urbani [1]: 0.8; Binding of serum 62 to linear peptides of protein N of SARS-CoV Urbani [1]: 0.9; Binding of serum London to linear peptides of protein N of SARS-CoV Urbani [1]: 0.7; Binding of serum SARS-green to linear peptides of protein N of SARS-CoV Urbani [1]: 0.4; Binding of serum SARS-yellow to linear peptides of protein N of SARS-CoV Urbani [1]: 0.7; Control Serum Blood-Bank Looped peptides [4]: 1.2; Control serum Blood-bank linear peptides [4]: 0.8; Control serum LUMC linear peptides [4]: 0.8; Control serum LUMC looped peptides [4]: 1.1 |
